From US8293763B2, “8-anilinoimidazopyridines and their use as anti-cancer and/or anti-inflammatory agents” (Genentech, Inc., priority 2007, dated 2012)

Legend:
[1] = system: HCT116 human colorectal carcinoma; assay: Cell Proliferation Assay (CellTiter-Glo), HCT116; type: cell-based; conditions: HCT-116, HCT116 cell line, 72 h exposure
Protocol: Compounds are tested in a cell proliferation assay using the following cell lines:
(§1) HCT116 human colorectal carcinoma (ATCC)
(§2) Both cell lines are maintained in DMEM/F12 (1:1) media (Gibco) supplemented with 10% FCS at 37° C. in a 5% CO2 humidified incubator.
Cells are seeded in 96-well plates at 2,000 cells/well and after 24 hours they are exposed to different concentrations of compounds in 0.83% DMSO. Cells are grown for a further 72 h, and an equal volume of CellTiter-Glo reagent (Promega) is added to each well. This lyses the cells and generates a luminescent signal proportional to the amount of ATP released (and therefore proportional to the number of cells in the well) that can be detected using a multi-well luminometer.
The EC50 is defined as the concentration at which a given compound achieves 50% inhibition of control. IC50 values are calculated using the XLfit software package (version 2.0.5).

phospho-ERK = assay: Phospho-ERK Cell-Based Assay (ELISA), HCT116; conditions: Homo sapiens, HCT-116; HCT116 cell line, 2 h or 24 h exposure
Protocol: Phospho-ERK Cell-Based Assay
Compounds are tested in a cell-based phospho-ERK ELISA using the following cell lines:
as §1, §2
Cells are seeded in 96-well plates at 2,000 cells/well and after 24 h they are exposed to different concentrations of compounds in 0.83% DMSO. Cells are grown for a further 2 h or 24 h, fixed with formaldehyde (2% final) and permeabilised with methanol. Following blocking with TBST-3% BSA, fixed cells are incubated with primary antibody (anti-phospho ERK from rabbit) over-night at 4° C. Cells are incubated with Propidium Iodide (DNA fluorescent dye) and detection of cellular p-ERK is performed using an anti-rabbit secondary antibody conjugated to the fluorescent Alexa Fluor 488 dye (Molecular probes). The fluorescence is analysed using the Acumen Explorer (TTP Labtech), a laser-scanning microplate cytometer, and the Alexa Fluor 488 signal is normalised to the PI signal (proportional to cell number).
The EC50 is defined as the concentration at which a given compound achieves a signal half way between the baseline and the maximum response. EC50 values are calculated using the XLfit software package (version 2.0.5).

EC50 [1]: < 100 nM
EC50 (phospho-ERK): < 200 nM
SMILES: C[C@H](O)CONC(=O)c1ccn2cncc2c1Nc1ccc(Br)cc1F [Example 12, 8-(4-Bromo-2-fluoro-phenylamino)-imidazo[1,5-a]pyridine-7-carboxylic acid ((S)-2-hydroxy-propoxy)-amide]
